Broadly, the pIC50 is the negative decadic logarithm of the IC50, by convention in mol/L.

We go through 24 molecules from US10711004B2 (Genentech, Inc., priority 2018, dated 2020).

The target of this test is human TRPA1 channel (Homo sapiens (Human), UniProt O75762). Nature of the test: hTRPA1 CHO Ca2+ FLIPR Tetra assay, block of cinnamaldehyde induced calcium influx. The conditions noted are these: for TRPA1 IC50 compared with 3-azabicyclo[3.1.0]hexene linker and cyclobutylene linker analogues: bicyclo[3.1.0]hexene linker compounds versus same-substituent analogues (compounds 16, 191; 26, 1); for pIC50: CHO cells expressing TRPA1, Hill coefficient fixed to 1.5. The format is cell-based. In short, it runs like this: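 Calcium-dye-loaded TRPA1-expressing CHO cells in HBSS/20 mM HEPES pH 7.4, 0.02% BSA were preincubated with compound for 10 or 90 min at room temperature. Calcium influx evoked by roughly an EC50 concentration of cinnamaldehyde was then read on FLIPR Tetra; IC50 came from curve fits with a fixed Hill coefficient.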

Where [1] appears, read: read-out: hTRPA1 IC50 (10 min), compounds incubated 10 minutes at room temperature before cinnamaldehyde agonist.
[2] abbreviates: read-out: hTRPA1 IC50 (90 min), compounds incubated 90 minutes at room temperature before cinnamaldehyde agonist.

pIC50: −log10 of the molar value. Read-outs that look alike come from different tables or passages of the source.

human TRPA1 channel, sequence (O75762 whole entry): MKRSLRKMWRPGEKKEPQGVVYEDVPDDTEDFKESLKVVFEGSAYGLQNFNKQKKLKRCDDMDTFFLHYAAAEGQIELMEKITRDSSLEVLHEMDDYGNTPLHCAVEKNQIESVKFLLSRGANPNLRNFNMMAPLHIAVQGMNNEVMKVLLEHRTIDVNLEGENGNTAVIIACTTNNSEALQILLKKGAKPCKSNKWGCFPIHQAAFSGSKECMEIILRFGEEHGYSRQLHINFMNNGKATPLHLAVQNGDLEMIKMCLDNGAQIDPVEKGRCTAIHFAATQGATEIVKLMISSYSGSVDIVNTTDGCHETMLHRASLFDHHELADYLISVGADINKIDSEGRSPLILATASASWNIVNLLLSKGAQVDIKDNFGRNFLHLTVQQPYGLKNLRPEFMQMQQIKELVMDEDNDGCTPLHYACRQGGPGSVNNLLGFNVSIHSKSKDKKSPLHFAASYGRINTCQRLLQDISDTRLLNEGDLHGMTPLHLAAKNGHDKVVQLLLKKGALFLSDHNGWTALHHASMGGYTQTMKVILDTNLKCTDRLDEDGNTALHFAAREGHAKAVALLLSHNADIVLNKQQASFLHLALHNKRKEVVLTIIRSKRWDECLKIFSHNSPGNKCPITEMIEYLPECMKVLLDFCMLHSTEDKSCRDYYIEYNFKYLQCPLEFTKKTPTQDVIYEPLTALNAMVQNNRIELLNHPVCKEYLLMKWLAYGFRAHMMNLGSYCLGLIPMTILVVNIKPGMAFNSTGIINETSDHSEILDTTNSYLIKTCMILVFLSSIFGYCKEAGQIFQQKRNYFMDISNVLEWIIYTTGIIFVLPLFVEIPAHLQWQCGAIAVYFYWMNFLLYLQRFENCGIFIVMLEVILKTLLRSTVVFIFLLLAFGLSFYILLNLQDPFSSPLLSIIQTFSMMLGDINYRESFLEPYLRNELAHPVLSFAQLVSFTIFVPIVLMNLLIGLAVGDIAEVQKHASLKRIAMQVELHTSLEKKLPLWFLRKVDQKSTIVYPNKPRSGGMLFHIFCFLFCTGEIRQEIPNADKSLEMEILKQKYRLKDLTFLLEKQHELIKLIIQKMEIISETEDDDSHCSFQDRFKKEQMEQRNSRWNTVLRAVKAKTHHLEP

Regarding `Cn1cnc2ncn(Cc3nc([C@H]4[C@@H]5C=C(c6cccc(Cl)c6)C[C@@H]54)no3)c(=O)c21` [Example Compound 184, 1-((3-((1S,5S,6R)-3-(3-chlorophenyl)bicyclo[3.1.0]hex-2-en-6-yl)-1,2,4-oxadiazol-5-yl)methyl)-7-methyl-1,7-dihydro-6H-purin-6-one], the “TRPA1 IC50 compared with 3-azabicyclo[3.1.0]hexene linker and cyclobutylene linker analogues” value is “improved TRPA1 IC50 values”. Also, the pIC50 under setting [1] was 8.05. Moreover, the negative-log IC50 (pIC50) under setting [2] is 8.74.

`Cn1cnc2ncn(Cc3nc([C@@H]4[C@H]5C=C(c6cccc(Cl)c6)C[C@H]54)no3)c(=O)c21` [Example Compound 185, 1-((3-((1R,5R,6S)-3-(3-chlorophenyl)bicyclo[3.1.0]hex-2-en-6-yl)-1,2,4-oxadiazol-5-yl)methyl)-7-methyl-1,7-dihydro-6H-purin-6-one]: the “TRPA1 IC50 compared with 3-azabicyclo[3.1.0]hexene linker and cyclobutylene linker analogues” value is listed as “improved TRPA1 IC50 values”. In addition, the pIC50 under setting [1] was 7.73. Moreover, the pIC50 under setting [2] was 8.11. Consider `Cn1cnc2ncn(Cc3nc([C@H]4[C@@H]5Oc6c(Cl)cccc6[C@@H]54)no3)c(=O)c21` [Example Compound 186, 1-((3-((1S,1aR,6bS)-3-chloro-1a,6b-dihydro-1H-cyclopropa[b]benzofuran-1-yl)-1,2,4-oxadiazol-5-yl)methyl)-7-methyl-1,7-dihydro-6H-purin-6-one], for which the pIC50 by setting is: under setting [1], 7.30; under setting [2], 7.34. Turning to `Cn1cnc2ncn(Cc3nc([C@@H]4[C@H]5Oc6c(Cl)cccc6[C@H]54)no3)c(=O)c21` [Example Compound 187, 1-((3-((1R,1 aS,6bR)-3-chloro-1a,6b-dihydro-1H-cyclopropa[b]benzofuran-1-yl)-1,2,4-oxadiazol-5-yl)methyl)-7-methyl-1,7-dihydro-6H-purin-6-one], the pIC50 under setting [1] was 6.12. Same read-out and setting: as for `Cn1cnc2ncn(Cc3nc([C@H]4C[C@H](c5cccc(C#N)c5)C4)no3)c(=O)c21` [Example Compound 189, 3-((1r,3r)-3-(5-((7-methyl-6-oxo-6,7-dihydro-1H-purin-1-yl)methyl)-1,2,4-oxadiazol-3-yl)cyclobutyl)benzonitrile], the figure is 7.17. `Cn1cnc2ncn(Cc3nc([C@H]4[C@@H]5CN(c6cccc(-c7ncco7)c6)C[C@@H]54)no3)c(=O)c21` [Example Compound 190, 7-methyl-1-((3-((1R,5S,6r)-3-(3-(oxazol-2-yl)phenyl)-3-azabicyclo[3.1.0]hexan-6-yl)-1,2,4-oxadiazol-5-yl)methyl)-1,7-dihydro-6H-purin-6-one]: the pIC50 is, setting by setting: under setting [1], 7.11; under setting [2], 7.14. `Cn1cnc2ncn(Cc3nc([C@H]4C[C@H](c5cccc(F)c5)C4)no3)c(=O)c21` [Example Compound 191, 1-((3-((1r,3r)-3-(3-fluorophenyl)cyclobutyl)-1,2,4-oxadiazol-5-yl)methyl)-7-methyl-1,7-dihydro-6H-purin-6-one]: under setting [1], the pIC50 is 7.08.

For `Cn1cnc2ncn(Cc3nc([C@H]4[C@@H]5CN(c6ccc(C#N)cc6)C[C@@H]54)no3)c(=O)c21` [Example Compound 192, 4-((1R,5S,6r)-6-(5-((7-methyl-6-oxo-6,7-dihydro-1H-purin-1-yl)methyl)-1,2,4-oxadiazol-3-yl)-3-azabicyclo[3.1.0]hexan-3-yl)benzonitrile], the pIC50 runs as follows: under setting [1], 7.56; under setting [2], 7.89. The corresponding values for `Cn1cnc2ncn(Cc3nc([C@H]4[C@@H]5CN(c6cc(Cl)cc(C#N)c6)C[C@@H]54)no3)c(=O)c21` [Example Compound 193, 3-chloro-5-((1R,5S,6r)-6-(5-((7-methyl-6-oxo-6,7-dihydro-1H-purin-1-yl)methyl)-1,2,4-oxadiazol-3-yl)-3-azabicyclo[3.1.0]hexan-3-yl)benzonitrile] are 7.43 and 7.49.

With `O=c1c2cccnc2ncn1Cc1nc([C@H]2[C@@H]3CN(c4ccccc4)C[C@@H]32)no1` [Example Compound 194, 3-((3-((1R,5S,6r)-3-phenyl-3-azabicyclo[3.1.0]hexan-6-yl)-1,2,4-oxadiazol-5-yl)methyl)pyrido[2,3-d]pyrimidin-4(3H)-one], the pIC50 was 7.70 under setting [1] and 7.82 under setting [2]. Consider `O=c1c2ccncc2ncn1Cc1nc([C@H]2[C@@H]3CN(c4ccccc4)C[C@@H]32)no1` [Example Compound 195, 3-((3-((1R,5S,6r)-3-phenyl-3-azabicyclo[3.1.0]hexan-6-yl)-1,2,4-oxadiazol-5-yl)methyl)pyrido[3,4-d]pyrimidin-4(3H)-one], for which the negative logarithm of the IC50 (pIC50) was 7.00 under setting [1] and 6.96 under setting [2].

As to `Cc1ccnc2ncn(Cc3nc([C@H]4C[C@](F)(c5ccc(F)cc5)C4)no3)c(=O)c12` [Example Compound 196, 3-((3-((1s,3s)-3-fluoro-3-(4-fluorophenyl)cyclobutyl)-1,2,4-oxadiazol-5-yl)methyl)-5-methylpyrido[2,3-d]pyrimidin-4(3H)-one], the pIC50 by setting is: under setting [1], 7.89; under setting [2], 7.52. In the case of `O=c1c2cccnc2ncn1Cc1nc([C@H]2C[C@](F)(c3cccc(F)c3)C2)no1` [Example Compound 197, 3-((3-((1s,3s)-3-fluoro-3-(3-fluorophenyl)cyclobutyl)-1,2,4-oxadiazol-5-yl)methyl)pyrido[2,3-d]pyrimidin-4(3H)-one], under setting [1], the pIC50 is 7.17. Same read-out and setting: as for `O=c1c2cccnc2ncn1Cc1nc([C@H]2C[C@](F)(c3cccc(Cl)c3)C2)no1` [Example Compound 198, 3-((3-((1s,3s)-3-(3-chlorophenyl)-3-fluorocyclobutyl)-1,2,4-oxadiazol-5-yl)methyl)pyrido[2,3-d]pyrimidin-4(3H)-one], the figure is 7.23. As for `Cn1cnc2ncn(Cc3nc([C@H]4[C@@H]5CN(c6cccc(-c7cnco7)c6)C[C@@H]54)no3)c(=O)c21` [Example Compound 199, 7-methyl-1-((3-((1R,5S,6r)-3-(3-(oxazol-5-yl)phenyl)-3-azabicyclo[3.1.0]hexan-6-yl)-1,2,4-oxadiazol-5-yl)methyl)-1,7-dihydro-6H-purin-6-one], the negative logarithm of the IC50 (pIC50) was 7.58 under setting [1] and 7.66 under setting [2]. For `Cn1cc(-c2cccc(N3C[C@@H]4[C@H](C3)[C@H]4c3noc(Cn4cnc5ncn(C)c5c4=O)n3)c2)cn1` [Example Compound 200, 7-methyl-1-((3-((1R,5S,6r)-3-(3-(1-methyl-1H-pyrazol-4-yl)phenyl)-3-azabicyclo[3.1.0]hexan-6-yl)-1,2,4-oxadiazol-5-yl)methyl)-1,7-dihydro-6H-purin-6-one] the same measures were 7.42 and 7.77. The corresponding values for `Cn1cnc2ncn(Cc3nc([C@H]4[C@@H]5CN(c6cccc(-c7ccncc7)c6)C[C@@H]54)no3)c(=O)c21` [Example Compound 201, 7-methyl-1-((3-((1R,5S,6r)-3-(3-(pyridin-4-yl)phenyl)-3-azabicyclo[3.1.0]hexan-6-yl)-1,2,4-oxadiazol-5-yl)methyl)-1,7-dihydro-6H-purin-6-one] are 7.17 and 7.18. As to `Cn1cnc2ncn(Cc3nc([C@H]4[C@@H]5CN(c6cccc(-n7cccn7)c6)C[C@@H]54)no3)c(=O)c21` [Example Compound 202, 1-((3-((1R,5S,6r)-3-(3-(1H-pyrazol-1-yl)phenyl)-3-azabicyclo[3.1.0]hexan-6-yl)-1,2,4-oxadiazol-5-yl)methyl)-7-methyl-1,7-dihydro-6H-purin-6-one], under setting [1], the pIC50 is 7.30. With `Cn1cnc2ncn(Cc3nc([C@H]4[C@@H]5CN(c6cccc(-c7cccnc7)c6)C[C@@H]54)no3)c(=O)c21` [Example Compound 203, 7-methyl-1-((3-((1R,5S,6r)-3-(3-(pyridin-3-yl)phenyl)-3-azabicyclo[3.1.0]hexan-6-yl)-1,2,4-oxadiazol-5-yl)methyl)-1,7-dihydro-6H-purin-6-one], the negative logarithm of the IC50 (pIC50) was 7.33 under setting [1] and 7.11 under setting [2]. The corresponding values for `Cn1cnc2ncn(Cc3nc([C@H]4[C@@H]5CN(c6ccc(Cl)cn6)C[C@@H]54)no3)c(=O)c21` [Example Compound 205, 1-((3-((1R,5S,6r)-3-(5-chloropyridin-2-yl)-3-azabicyclo[3.1.0]hexan-6-yl)-1,2,4-oxadiazol-5-yl)methyl)-7-methyl-1,7-dihydro-6H-purin-6-one] are 6.30 and 7.07. As for `Cn1cnc2ncn(Cc3nc([C@H]4C[C@](F)(c5ccc(F)cc5)C4)no3)c(=O)c21` [Example Compound 206, 1-((3-((1s,3s)-3-fluoro-3-(4-fluorophenyl)cyclobutyl)-1,2,4-oxadiazol-5-yl)methyl)-7-methyl-1,7-dihydro-6H-purin-6-one], the pIC50 under setting [1] is 6.50. The same measure, in the same setting: then `O=c1c2cccnc2ncn1Cc1nc([C@H]2C[C@](F)(c3ccc(F)cc3)C2)no1` [Example Compound 207, 3-((3-((1s,3s)-3-fluoro-3-(4-fluorophenyl)cyclobutyl)-1,2,4-oxadiazol-5-yl)methyl)pyrido[2,3-d]pyrimidin-4(3H)-one], with 7.02; and `O=c1c2cccnc2ncn1Cc1nc([C@H]2C[C@H](c3ccc(Cl)cc3)C2)no1` [Example Compound 208, 3-((3-((1r,3r)-3-(4-chlorophenyl)cyclobutyl)-1,2,4-oxadiazol-5-yl)methyl)pyrido[2,3-d]pyrimidin-4(3H)-one], with 7.11.

As to `Cn1cnc2ncn(Cc3nc([C@H]4C[C@H](c5cc(Cl)ccc5F)C4)no3)c(=O)c21` [Example Compound 209, 1-((3-((1r,3r)-3-(5-chloro-2-fluorophenyl)cyclobutyl)-1,2,4-oxadiazol-5-yl)methyl)-7-methyl-1,7-dihydro-6H-purin-6-one], the pIC50 under setting [1] was 6.05.
